Common to all, as to assay: Bliss excess, mean over the matrix (fraction); higher = more synergy
One assay relates to 5637 (Bladder Carcinoma). The method in brief: (§1)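 Cell lines grown in DMEM/F12 or RPMI with 10% FBS were plated in 1536-well plates and held 24 hours at 37°C, 5% CO2 before 72 hours of exposure to two-drug dose matrices, with DMSO typically at 0.2%. CellTiter-Glo 2.0 luminescence gave viability, which was converted to inhibition. Vehicle wells were set to 0 and blank wells to 1. Combination Emax is the second-highest inhibition in the matrix, and Bliss excess is the observed combination effect minus the expected EA + EB − EA·EB, where EA and EB are the single-agent effects.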

In another assay the test system is A204 (Rhabdomyosarcoma). The essentials:
as §1

The next assay concerns AU565 (Breast Carcinoma). The essentials:
as §1

The test system of assay [1] is CAL-27 (Oral Cavity Carcinoma). The method in brief:
as §1

The test system of assay [2] is CESS (Acute Myeloid Leukemia). The essentials: as §1
Assay [3] concerns EPLC-272H (Other Solid Carcinomas). The method in brief:
as §1

Assay [4] has as its system ESO26 (Esophageal Adenocarcinoma). The essentials: as §1
The next assay relates to EW-16 (Ewing's Sarcoma). The essentials:
as §1

Assay [5] has as its system G-402 (Other Solid Carcinomas). The method in brief:
as §1

The test system of assay [6] is GCT (Other Solid Carcinomas). The method in brief: as §1
The test system of assay [7] is HCC1428 (Breast Carcinoma). The essentials: as §1
Assay [8] deals with HT55 (Colorectal Carcinoma). The method in brief: as §1
For assay [9], the system named is Jurkat (T-Lymphoblastic Leukemia). The method in brief: as §1
The next assay concerns KP-N-YN (Neuroblastoma). The method in brief: as §1
Assay [10] has as its system LS-411N (Colorectal Carcinoma). The essentials: as §1
The test system of the next assay is NB13 (Neuroblastoma). The method in brief: as §1
For assay [11], the system named is NCI-H2228 (Lung Adenocarcinoma). The essentials: as §1
Assay [12] deals with OACp4C (Esophageal Adenocarcinoma). The method in brief:
as §1

For another assay, the system named is RH-41 (Rhabdomyosarcoma). The essentials: as §1
In assay [13] the test system is huH-1 (Hepatocellular Carcinoma). The essentials:
as §1

`CN(CCO)CC[C@H](CSc1ccccc1)Nc1ccc(S(=O)(=O)NC(=O)c2ccc(N3CCC([C@@H](O)c4ccccc4-c4ccc(Cl)cc4)CC3)cc2)cc1S(=O)(=O)C(F)(F)F` [AZD4320] + C1CN(CCC1(C(=O)N[C@@H](CCO)C2=CC=C(C=C2)Cl)N)C3=NC=NC4=C3C=CN4 [Capivasertib] (first compound max 1 µM, 7x7, partner max 3 µM): the Bliss excess in the assay with 5637 (Bladder Carcinoma) was -0.0471; in the assay on A204 (Rhabdomyosarcoma), -0.0393; in the assay with AU565 (Breast Carcinoma), 0.0161; in [1], -0.0362; in assay [2], 0.0517; in assay [3] it was -0.0089. The Bliss excess in assay [4] was -0.0271; with EW-16 (Ewing's Sarcoma), -0.0469; in assay [5], -0.0262; in assay [6] it was -0.021; in [7] it was -0.0092; in assay [8], -0.0469. Also, the Bliss excess in assay [9] is -0.0203; in the assay with KP-N-YN (Neuroblastoma), -0.0237; in [10], -0.048; with NB13 (Neuroblastoma), 0.0174; in [11] it was -0.0392; in [12], 0.0209. Moreover, the values for the Bliss excess (in the assay on RH-41 (Rhabdomyosarcoma); in assay [13]) were -0.0159 and -0.0215, respectively.
For `CN(CCO)CC[C@H](CSc1ccccc1)Nc1ccc(S(=O)(=O)NC(=O)c2ccc(N3CCC([C@@H](O)c4ccccc4-c4ccc(Cl)cc4)CC3)cc2)cc1S(=O)(=O)C(F)(F)F` [AZD4320] + C=CCn1c(=O)c2cnc(Nc3ccc(N4CCN(C)CC4)cc3)nc2n1-c1cccc(C(C)(C)O)n1 [AZD1775] (first compound max 1 µM, partner max 1 µM), the Bliss excess was 0.0437 in the assay with 5637 (Bladder Carcinoma); -0.0304 in the assay with A204 (Rhabdomyosarcoma); 0.0571 in the assay on AU565 (Breast Carcinoma); -0.0226 in assay [1]; 0.0873 in assay [2]; -0.0069 in [3]. The Bliss excess in assay [4] is -0.0318; in the assay with EW-16 (Ewing's Sarcoma), 0.033; in assay [5], -0.0345; in assay [6] it was -0.0363; in assay [7], 0.0369; in [8], 0.0167. Also, the Bliss excess in [9] is 0.0568; in the assay with KP-N-YN (Neuroblastoma), 0.0631; in [10], 0.0549; with NB13 (Neuroblastoma) it was 0.0475; in assay [11] it was -0.0344; in assay [12], -0.0071. Moreover, the Bliss excess is 0.0873 in the assay with RH-41 (Rhabdomyosarcoma) and 0.01 in assay [13].
For `CN(CCO)CC[C@H](CSc1ccccc1)Nc1ccc(S(=O)(=O)NC(=O)c2ccc(N3CCC([C@@H](O)c4ccccc4-c4ccc(Cl)cc4)CC3)cc2)cc1S(=O)(=O)C(F)(F)F` [AZD4320] + CCN(CCO)CCCOc1ccc2c(Nc3cc(CC(=O)Nc4cccc(F)c4)[nH]n3)ncnc2c1 [AZD2811] (first compound max 1 µM, 7x7, partner max 1 µM), the Bliss excess in the assay on 5637 (Bladder Carcinoma) was -0.0117; in the assay with A204 (Rhabdomyosarcoma) it was -0.0553; in the assay on AU565 (Breast Carcinoma), 0.0712; in [1] it was 0.0635; in assay [2], 0.164; in assay [3] it was 0.0873. The Bliss excess is -0.0266 in assay [4]; 0.14 with EW-16 (Ewing's Sarcoma); 0.0415 in assay [5]; -0.0089 in assay [6]; 0.16 in assay [7]; -0.0005 in [8]. Also, the Bliss excess in assay [9] was 0.0105; with KP-N-YN (Neuroblastoma), 0.0516; in [10], 0.0119; with NB13 (Neuroblastoma), 0.0975; in assay [11] it was -0.0025; in assay [12], 0.0011. Also, the Bliss excess worked out at 0.0867 in the assay on RH-41 (Rhabdomyosarcoma) and 0.0161 in assay [13].
On to `CN(CCO)CC[C@H](CSc1ccccc1)Nc1ccc(S(=O)(=O)NC(=O)c2ccc(N3CCC([C@@H](O)c4ccccc4-c4ccc(Cl)cc4)CC3)cc2)cc1S(=O)(=O)C(F)(F)F` [AZD4320] + C[C@@H]1COCCN1C2=NC(=NC(=C2)C3(CC3)[S@](=N)(=O)C)C4=C5C=CNC5=NC=C4 [AZD6738] (first compound max 1 µM, 7x7, partner max 10 µM), for which the Bliss excess with 5637 (Bladder Carcinoma) was -0.05; in the assay on A204 (Rhabdomyosarcoma) it was -0.0207; in the assay on AU565 (Breast Carcinoma), 0.0419; in assay [1], -0.0544; in assay [2], 0.02; in assay [3] it was -0.0244. Moreover, the Bliss excess in [4] was -0.0439; in the assay with EW-16 (Ewing's Sarcoma), -0.101; in assay [5], -0.0805; in [6], -0.0313; in assay [7] it was 0.0184; in assay [8], 0.0093. Besides, the Bliss excess in assay [9] was -0.0112; in the assay with KP-N-YN (Neuroblastoma), -0.019; in assay [10] it was 0.0135; with NB13 (Neuroblastoma) it was -0.0167; in assay [11] it was -0.0628; in [12], -0.036. Further, the Bliss excess was -0.0086 with RH-41 (Rhabdomyosarcoma) and 0.0215 in assay [13].
Turning to `CN(CCO)CC[C@H](CSc1ccccc1)Nc1ccc(S(=O)(=O)NC(=O)c2ccc(N3CCC([C@@H](O)c4ccccc4-c4ccc(Cl)cc4)CC3)cc2)cc1S(=O)(=O)C(F)(F)F` [AZD4320] + C[C@@H](Nc1cc(F)cc(F)c1)c1cc(C(=O)N(C)C)cc2c(=O)cc(N3CCOCC3)oc12 [AZD8186] (first compound max 1 µM, 7x7, partner max 3 µM), the Bliss excess in the assay with 5637 (Bladder Carcinoma) is -0.0028; in the assay on A204 (Rhabdomyosarcoma), 0.0119; in the assay on AU565 (Breast Carcinoma), 0.035; in assay [1], 0.0005; in [2], -0.0209; in assay [3] it was 0.0633. Also, the Bliss excess is 0.0217 in assay [4]; -0.0129 in the assay with EW-16 (Ewing's Sarcoma); 0.0818 in assay [5]; 0.0052 in assay [6]; 0.0149 in assay [7]; -0.0003 in assay [8]. Besides, the Bliss excess in assay [9] was 0.0576; with KP-N-YN (Neuroblastoma), -0.0097; in assay [10], 0.031; in the assay on NB13 (Neuroblastoma), 0.0205; in [11], -0.0301; with RH-41 (Rhabdomyosarcoma), 0.0706. Moreover, the Bliss excess in assay [13] was -0.0461.
